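Five compound concentrations were applied to cells in 96-well plates for 48 hours; endpoints were derived by simple linear interpolation of the resulting dose-response curve. At the GI50, growth is halved.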 Activity calls are given as the source filed them. No stated cut-off is given here; in the data, active = GI50 up to about 1.1 µM and inactive = higher.
Columns and labels:
Assay in all cases: inhibition of tumour cell growth, NCI panel, 48 h
HOP-18 = system: HOP-18
M19-MEL = system: M19-MEL
DMS-114 = system: DMS-114
DLD-1 = system: DLD-1
RXF 631 = system: RXF 631
DMS-273 = system: DMS-273
MDA-N = system: MDA-N
Hs-578T = system: Hs-578T
BT-549 = system: BT-549

| Structure (SMILES) | GI50 (HOP-18) | GI50 (M19-MEL) | GI50 (DMS-114) | GI50 (DLD-1) | GI50 (RXF 631) | GI50 (DMS-273) | GI50 (MDA-N) | GI50 (Hs-578T) | GI50 (BT-549) |
| --- | --- | --- | --- | --- | --- | --- | --- | --- | --- |
| CCOC(=O)/C(=C/c1ccco1)P(=O)(OCC)OCC | > 100 µM (inactive) | > 100 µM (inactive) | > 100 µM (inactive) | > 100 µM (inactive) | – | – | – | – | – |
| CCOC(=O)[N-]c1ccc(S(=O)(=O)[O+](C)CCl)cc1.CCOC(=O)[N-]c1ccc(S(=O)(=O)[O+](C)CCl)cc1.NC(=O)N=O.NC(=O)OCCCl | > 100 µM (inactive) | > 100 µM (inactive) | > 100 µM (inactive) | – | > 100 µM (inactive) | – | – | – | – |
| CCOC(=O)C12CCC(=O)C=C1[C@@H](C)C(=O)CC2 (stereo partly drawn) | – | > 100 µM (inactive) | > 100 µM (inactive) | > 100 µM (inactive) | – | > 100 µM (inactive) | – | – | – |
| O=C(c1ccccc1O)c1cc(-c2ncc3c(=O)c4ccccc4oc3n2)c(-c2ccccc2O)[nH]c1=O | 33.3 µM (inactive) | 25.5 µM (inactive) | 28.8 µM (inactive) | 24.4 µM (inactive) | – | 26.8 µM (inactive) | – | – | – |
| O=NN(CCF)C(=O)NC1CC2CCC1C2 (stereo not drawn) | > 100 µM (inactive) | > 100 µM (inactive) | > 100 µM (inactive) | > 87.7 µM (inactive) | – | > 100 µM (inactive) | – | – | – |
| COC(=O)C(CC(=O)c1cc2c(cc1I)OCO2)Cc1cc(OC)c(OC)c(OC)c1I (stereo not drawn) | > 100 µM (inactive) | > 100 µM (inactive) | 22.8 µM (inactive) | > 100 µM (inactive) | – | > 100 µM (inactive) | – | – | – |
| COC(=O)[C@]1(c2ccc(N(C)C)cc2OC)C[C@@H]2CCCN(CCc3c1[nH]c1ccccc31)C2 | 24.1 µM (inactive) | 16.4 µM (inactive) | 16.6 µM (inactive) | 27.2 µM (inactive) | – | 20.5 µM (inactive) | – | – | – |
| Cc1nc2c(n1-c1ccccc1)C(=O)c1ccccc1C2=O | – | 17.9 µM (inactive) | 21.6 µM (inactive) | 48.5 µM (inactive) | – | 39.4 µM (inactive) | – | – | – |
| Cc1nc(O)nc2c1C(NCCCN(C)C)c1cc(Cl)ccc1N2 (stereo not drawn) | – | 3.91 µM (inactive) | 14.7 µM (inactive) | 17.8 µM (inactive) | – | 12.7 µM (inactive) | – | – | – |
| COC(=O)CC(=O)OSc1ccccc1 | – | – | 11.6 µM (inactive) | 17.2 µM (inactive) | 11.4 µM (inactive) | 22.7 µM (inactive) | – | – | – |
| CC1=C(C(=O)NCc2ccccc2)C(c2ccc(N(C)C)cc2)C(C(=O)NCc2ccccc2)=C(C)N1 | – | > 100 µM (inactive) | > 100 µM (inactive) | > 100 µM (inactive) | > 100 µM (inactive) | > 100 µM (inactive) | – | – | – |
| COC(=O)C(C/C=C(\C)c1ccccc1)C(C)=O (stereo not drawn) | > 100 µM (inactive) | 59.8 µM (inactive) | 34.9 µM (inactive) | 89.5 µM (inactive) | – | > 83.9 µM (inactive) | – | – | – |
| Cc1ccc(NC(=O)C2C(=O)N(c3ccc(C)c(C)c3)C(=O)/C2=N\NC(N)=O)cc1C (stereo not drawn) | 7.85 µM (inactive) | > 100 µM (inactive) | 56.9 µM (inactive) | > 100 µM (inactive) | – | – | – | – | – |
| CC(=O)c1ccc(NC(=O)/C(=N\NC(N)=O)C(C#N)CC(C)(C)C=O)cc1 (stereo not drawn) | – | > 100 µM (inactive) | > 100 µM (inactive) | > 100 µM (inactive) | – | > 100 µM (inactive) | – | – | – |
| CC(C)(C)c1nc2c(o1)/C(=N\c1ccc(F)cc1)c1ccccc1C2=O | 15.2 µM (inactive) | 1.13 µM (inactive) | 0.902 µM (active) | 4.11 µM (inactive) | – | 1.73 µM (inactive) | 2.37 µM (inactive) | 6.68 µM (inactive) | 3.45 µM (inactive) |
| Cc1cccc(C)c1NC(=O)CCc1nnc(S)[nH]1 | – | > 100 µM (inactive) | > 100 µM (inactive) | > 100 µM (inactive) | > 100 µM (inactive) | – | – | – | – |
| O=C(CC1(O)C(=O)Nc2ccccc21)c1ccc2ccccc2c1 (stereo not drawn) | – | > 100 µM (inactive) | > 100 µM (inactive) | > 100 µM (inactive) | > 100 µM (inactive) | > 100 µM (inactive) | – | – | – |
| O=C1c2ccccc2C2(O)NC(=S)N(c3ccccc3)C12O (stereo not drawn) | > 100 µM (inactive) | > 100 µM (inactive) | > 100 µM (inactive) | > 100 µM (inactive) | – | – | – | – | – |

— ChEMBL document CHEMBL1201862, “PubChem BioAssay data set” (2004)
